Marks after values point to notes of the source that are not given here. Starred links: 1 amine or outer side, 2 acyl side, 3 side chain; linkers in the order of their positions; H or OH if unused. Non-standard residues stand in square brackets, D forms with d. Groups on a side chain read outwards from the residue. No end group written: not given here. *: point of attachment. C20 diacid = O=C(O)CCCCCCCCCCCCCCCCCCC(=O)*; C18 diacid = O=C(O)CCCCCCCCCCCCCCCCC(=O)*; αMePhe(2-F) = C[C@](N)(Cc1ccccc1F)C(=O)O; γGlu = O=C(O)[C@H](CCC(=O)[*:2])N[*:1]; NMeY = CN[C@@H](Cc1ccc(O)cc1)C(=O)O; αMe4Pal = C[C@](N)(Cc1ccncc1)C(=O)O; αMeY = C[C@](N)(Cc1ccc(O)cc1)C(=O)O; αMeF = C[C@](N)(Cc1ccccc1)C(=O)O; 4Pal = N[C@@H](Cc1ccncc1)C(=O)O; αMeL = CC(C)C[C@](C)(N)C(=O)O; Orn = NCCC[C@H](N)C(=O)O; Dap = NC[C@H](N)C(=O)O; AEEA = NCCOCCOCC(=O)O; Aib = CC(C)(N)C(=O)O
Legend:
hGIPR [1] = biological target: T1, hGIPR (Homo sapiens, UniProt P48546); test: Functional cAMP activity in the presence of 1% HSA; assay type: cell-based; conditions: read-out: cAMP Rel EC50, hGIPR
T1 sequence (P48546 22-466): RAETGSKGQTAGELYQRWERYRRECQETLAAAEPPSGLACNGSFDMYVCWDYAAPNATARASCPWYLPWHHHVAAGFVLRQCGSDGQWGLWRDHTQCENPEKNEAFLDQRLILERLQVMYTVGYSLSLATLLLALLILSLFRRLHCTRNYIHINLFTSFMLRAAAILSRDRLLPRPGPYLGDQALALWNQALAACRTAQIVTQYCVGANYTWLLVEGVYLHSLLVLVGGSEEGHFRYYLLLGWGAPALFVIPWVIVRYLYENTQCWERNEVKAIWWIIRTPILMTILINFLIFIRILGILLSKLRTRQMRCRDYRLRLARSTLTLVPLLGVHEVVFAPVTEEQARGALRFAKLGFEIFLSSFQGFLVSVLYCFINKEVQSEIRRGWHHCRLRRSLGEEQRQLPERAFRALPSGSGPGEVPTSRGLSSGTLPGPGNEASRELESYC

hGLP-1R [2] = biological target: T2, hGLP-1R (Homo sapiens, UniProt P43220); test: Functional cAMP activity in the presence of 1% HSA; assay type: cell-based; conditions: read-out: cAMP Rel EC50, hGLP-1R
Target sequence in this assay (P43220 24-463): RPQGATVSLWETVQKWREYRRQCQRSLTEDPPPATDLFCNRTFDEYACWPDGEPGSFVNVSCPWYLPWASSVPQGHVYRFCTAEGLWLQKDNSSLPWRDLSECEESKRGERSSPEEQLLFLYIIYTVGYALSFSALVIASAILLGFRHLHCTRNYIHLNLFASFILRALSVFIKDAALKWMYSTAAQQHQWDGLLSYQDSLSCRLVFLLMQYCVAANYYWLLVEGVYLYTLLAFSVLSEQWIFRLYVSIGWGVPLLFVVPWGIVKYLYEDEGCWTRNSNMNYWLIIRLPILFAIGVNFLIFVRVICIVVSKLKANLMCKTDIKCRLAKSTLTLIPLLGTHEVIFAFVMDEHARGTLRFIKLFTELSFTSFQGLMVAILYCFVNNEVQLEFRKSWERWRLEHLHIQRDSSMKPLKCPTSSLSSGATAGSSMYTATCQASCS

human GcgR = human GcgR (Homo sapiens, UniProt P47871); test: Functional cAMP activity in the presence of 1% HSA; assay type: cell-based; conditions: read-out: cAMP Rel EC50, hGcgR
hGIPR [3] = biological target: T1, hGIPR; test: Functional cAMP activation in the presence of 0.1% casein (no HSA); assay type: cell-based; conditions: in the presence of 0.1% casein (no HSA); geometric mean; read-out: Relative cAMP EC50, hGIPR;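 on Relative cAMP EC50, hGIPR: intracellular cAMP rise after 30 min at 37 °C read by HTRF against a standard curve, scaled between buffer alone (0%) and top control ligand concentration (100%), four-parameter fit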;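 on Relative cAMP EC50, hGLP-1R: intracellular cAMP rise after 30 min at 37 °C read by HTRF, normalized between buffer only (0%) and maximal control ligand (100%), four-parameter variable-slope fit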;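 on Relative cAMP EC50, hGcgR: intracellular cAMP rise after 30 min at 37 °C, read by HTRF against a cAMP standard curve, scaled from buffer only (0%) to maximal control ligand response (100%)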
hGLP-1R [4] = biological target: T2, hGLP-1R; test: as above; assay type: cell-based; conditions: in the presence of 0.1% casein (no HSA); geometric mean; read-out: Relative cAMP EC50, hGLP-1R
Target sequence in this assay (P43220 24-463): as above

hGcgR = hGcgR (Homo sapiens, UniProt P47871); test: as above; assay type: cell-based; conditions: in the presence of 0.1% casein (no HSA); geometric mean; read-out: Relative cAMP EC50, hGcgR;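 further: intracellular cAMP rise after 30 min at 37 °C, read by HTRF against a cAMP standard curve, scaled from buffer only (0%) to maximal control ligand response (100%)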
[5] = Body weight in diet-induced obese C57BL/6 mice; assay type: in vivo; conditions: percent of starting weight, DIO mice, mean ± SEM n=5
Experimental: To investigate the effect of the polypeptides as described herein on weight loss, exemplary polypeptides are dosed to C57BL/6 diet-induced obese (DIO) mice. Specifically, DIO male C57BL/6 mice (Taconic, Germantown, NY) maintained on a calorie-rich diet are used in the following studies. Mice are individually housed in a temperature-controlled (24° C.) facility with 12-hour light/dark cycle (lights on 22:00) and free access to food (TD95217) and water. After a minimum of 2 weeks acclimation to the facility, the mice are randomized according to their body weight, so each experimental group of animals would have similar starting body weight. The body weights range from 41 to 50 g. All groups contain 5 mice. […] Treatments are administered by subcutaneous (SC) injection (10 mL/kg) to ad libitum fed DIO mice 30 to 90 minutes prior to the onset of the dark cycle either once daily (QD) or once every 3 days (Q3D) for 9-16 days. Body weight and food intake are measured daily throughout the study. Body weight is presented as percent of the starting weight. […] Data are presented as mean±SEM of 5 animals per group in Table 7 below. Statistical analysis is performed using repeated measures ANOVA, followed by Dunnett's method comparison test.

hGLP-1R [6] = biological target: T2, hGLP-1R; test: GLP-1R CHO cell β-arrestin recruitment assay; assay type: cell-based; design: host or cells: CHO-K1 (PathHunter, assay-ready frozen cells); conditions: for EC50: CHO-K1 PathHunter, β-arrestin-2, 0.1% casein, read-out: hGLP1R β-arrestin Rel EC50; for % Stimulation Max: normalized to GLP-1(7-36) as maximum control;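 on all read-outs here: luminescence read after 90 min peptide exposure at 37 °C and a further 60 min with detection reagent at room temperature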
Target sequence in this assay (P43220 24-463): as above
Target sequence in this assay (P32121 whole entry partner): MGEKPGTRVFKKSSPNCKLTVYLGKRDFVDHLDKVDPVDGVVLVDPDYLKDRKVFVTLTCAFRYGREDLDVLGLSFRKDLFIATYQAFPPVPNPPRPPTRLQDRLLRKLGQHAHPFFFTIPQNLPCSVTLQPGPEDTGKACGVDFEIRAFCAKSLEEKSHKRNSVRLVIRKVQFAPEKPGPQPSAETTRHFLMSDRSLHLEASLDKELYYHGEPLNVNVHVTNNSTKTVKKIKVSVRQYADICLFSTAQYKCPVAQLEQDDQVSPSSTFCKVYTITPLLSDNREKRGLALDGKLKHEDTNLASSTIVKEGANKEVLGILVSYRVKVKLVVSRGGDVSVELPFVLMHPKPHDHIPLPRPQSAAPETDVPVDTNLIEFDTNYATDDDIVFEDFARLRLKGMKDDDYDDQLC

human GLP1-R = human GLP1-R (Homo sapiens, UniProt P43220); test: GLP1-R internalization assay in HEK293 cells; assay type: cell-based; conditions: for EC50: HEK293 cells expressing SNAP-GLP-1R, read-out: GLP1R Internalization EC50; for Internalization % TOP: normalized to maximum concentration of GLP-1 (100%)
[7] = test system: Intestinal organoid from Göttingen minipig jejunum tissue, 2D monolayer; test: Cell based in vitro permeability (Papp) assay; assay type: in vitro ADME
Procedure, shortened: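 Papp calculated from LC/MS peptide levels in apical and basal compartments. Basal sampling at 20 min with C10 present, across monolayers grown from dissociated minipig jejunal organoids in transwells.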

[8] = Pepsin stability assay in simulated gastric fluid; assay type: in vitro ADME; conditions: pH 1.2, % Intact (SD)
Experimental: A pepsin stability assay is utilized to determine the relative stability of Example polypeptides in a simulated gastric proteolytic environment. […] The relative amount of intact peptide is quantified by mass spectrometry (MS). […] The examples were dissolved in 50 mM Tris buffer pH 8.0 at a concentration of 10 mg/mL as a stock solution. Pepsin A was reconstituted in SGF at 10 mg/mL. […] The example peptide and pepsin solutions were then incubated at 37° C. in a shaking incubator set at 100 rpm. Samples (25 μL) were withdrawn at different time intervals and quenched with 100 mM ammonium bicarbonate pH 9 (50 μL) to stop proteolytic activity. All samples were centrifuged, and the supernatants were analyzed by LC/MS to determine the remaining intact peptide.

hGcgR, sequence (P47871 26-477): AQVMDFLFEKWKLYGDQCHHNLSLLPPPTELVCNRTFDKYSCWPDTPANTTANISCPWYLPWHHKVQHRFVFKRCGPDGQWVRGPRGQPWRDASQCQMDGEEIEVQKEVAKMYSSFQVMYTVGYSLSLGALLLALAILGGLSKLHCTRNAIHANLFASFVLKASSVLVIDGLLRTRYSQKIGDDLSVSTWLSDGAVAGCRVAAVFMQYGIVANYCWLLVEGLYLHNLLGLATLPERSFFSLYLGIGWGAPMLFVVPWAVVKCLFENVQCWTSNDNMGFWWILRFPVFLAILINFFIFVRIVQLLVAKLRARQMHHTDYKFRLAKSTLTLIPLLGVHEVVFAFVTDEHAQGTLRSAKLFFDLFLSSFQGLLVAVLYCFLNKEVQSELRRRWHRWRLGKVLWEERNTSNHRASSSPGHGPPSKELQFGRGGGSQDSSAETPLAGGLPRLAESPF
human GcgR, sequence (P47871 26-477): as above
human GLP1-R, sequence (P43220 24-463): as the sequence (P43220 24-463) above

| Substance | EC50 (hGIPR [1]) | EC50 (hGLP-1R [2]) | EC50 (human GcgR) | EC50 (hGIPR [3]) | EC50 (hGLP-1R [4]) | EC50 (hGcgR) | Body weight (%) ([5]; 10 nmol/kg SC QD, 16 days) | EC50 (hGLP-1R [6]) | % Stimulation Max (hGLP-1R [6]) | Body weight (%) ([5]; 10 nmol/kg SC Q3D, 14 days) | EC50 (human GLP1-R) | Internalization % TOP (human GLP1-R) | Relative Papp (Compared to internal standard) [7] | remaining at 0.25 h, 0.4 mg/mL [8] | remaining at 0.5 h, 0.4 mg/mL [8] | remaining at 1 h, 0.4 mg/mL [8] |
| --- | --- | --- | --- | --- | --- | --- | --- | --- | --- | --- | --- | --- | --- | --- | --- | --- |
| H-H[Aib]QGT[αMePhe(2-F)]TSDYSILLDKK([AEEA-γGlu-C20 diacid])AA[Aib]AFIEYLIETGPSSGEPPPSEG-NH2 [Example 290] | 53.4 nM | 90 nM | 878 nM | 0.43 nM | 0.34 nM | 2.68 nM | 65.40 ± 3.45 % | 3.94 nM | 83.5% | – | – | – | – | – | – | – |
| H-Y[Aib]QGTFTSDFSI[αMeL]LDKK([AEEA-γGlu-C20 diacid])AQ[Aib]AFIEYLLEGGPSSGEPPPSEG-NH2 [Example 288] | 59.1 nM | 616 nM | 3580 nM | 0.234 nM | 1.89 nM | 5.17 nM | – | 16.3 nM | 18% | 86.18 ± 0.67 % | 30.3 nM | 72.4% | – | – | – | – |
| H-Y[Aib]QGTFTSDFSK[αMeL]LDKK([AEEA-γGlu-C20 diacid])AQ[Aib]AFIEYLLAGGPSSGEPPPSEE-NH2 [Example 4] | 62.3 nM | 869 nM | 1580 nM | 0.192 nM | 1.66 nM | 3.2 nM | – | 23.2 nM | 15.8% | 83.00 +/− 0.88**** % | 49.1 nM | 67.8% | – | – | – | – |
| H-Y[Aib]QGTFTSDFS[Dap][αMeL]LDKK([AEEA-γGlu-C18 diacid])AQ[Aib]AFIEYLLE[Aib]GPSSGAPPPSGS-NH2 [Example 134] | 38.3 nM | 549 nM | 1200 nM | 0.152 nM | 3.36 nM | 7.28 nM | – | – | – | 93.28 +/− 1.38% | 67.9 nM | 22.3% | 0.07 | – | – | – |
| H-Y[Aib]QGTFTSDFS[Orn][αMeL]LDKK([AEEA-γGlu-C18 diacid])AQ[Aib]AFIEWLLEGGPSSGAPPPEGS-NH2 [Example 121] | 24.6 nM | 348 nM | 442 nM | 0.172 nM | 2.38 nM | 4.89 nM | – | – | – | 85.58 +/− 3.20**** % | 38.1 nM | 46.3% | 0.08 | – | – | – |
| H-Y[Aib]QGTFTSDFS[Orn][αMeL]LDKK([AEEA-γGlu-C18 diacid])AQ[Aib]AFIEYLLAGGPSSGEPPPSGS-NH2 [Example 94] | 21.4 nM | 480 nM | 1220 nM | 0.154 nM | 2.63 nM | 8.16 nM | – | – | – | 84.92 +/− 1.79**** % | 37.1 nM | 47.2% | 0.02 | – | – | – |
| H-Y[Aib]QGTFTSDYSI[αMeL]LDKQAAK([AEEA-AEEA-γGlu-C20 diacid])QFVEWLIA[Aib]GPSSGEPPPAEG-NH2 [Example 334] | 72.1 nM | 171 nM | 2070 nM | 0.223 nM | 0.707 nM | 6.77 nM | – | – | – | 84.78 +/− 2.74**** % | 28.3 nM | 96.8% | – | – | – | – |
| H-Y[Aib]QGTFTSDYSK[αMeL]LDKK([AEEA-γGlu-C20 diacid])AQQAFVQWLIEGGPSSGEPPPSEG-NH2 [Example 315] | 85.1 nM | 140 nM | 1560 nM | 0.398 nM | 0.508 nM | 4.05 nM | – | 3.76 nM | 29.7% | 79.76 +/− 1.72**** % | – | – | – | – | – | – |
| H-Y[Aib]QGTFTSD[4Pal]SQ[αMeL]LD[Orn]K([dE-γGlu-C18 diacid])AQ[αMe4Pal]EFI[dE][αMeY]LIAGGPSSGAPPPSGSEEE-NH2 [Example 1235] | – | – | – | – | – | – | – | – | – | – | – | – | – | 1.4% | 0% | 0% |
| H-Y[Aib]QGTFTSD[4Pal]SR[αMeL]LDKK([AEEA-γGlu-C18 diacid])AQ[Aib]AFIEYLLE[Aib]GESSGAPPPSGS-NH2 [Example 132] | 25.9 nM | 823 nM | 632 nM | 0.21 nM | 5.72 nM | 2.63 nM | – | – | – | 98.66 +/− 0.47% | 72.7 nM | 67.2% | – | – | – | – |
| H-Y[Aib]QGT[αMePhe(2-F)]TSDYSILLDKIAAK([AEEA-γGlu-C20 diacid])AFIEYLIEGGPSSGEPPPSEG-NH2 [Example 296] | 21.8 nM | 171 nM | 517 nM | 0.0806 nM | 0.536 nM | 1.72 nM | 49.64 ± 1.97 % | 14 nM | 55.2% | – | 19.2 nM | 87.2% | – | – | – | – |
| H-Y[Aib]QGT[αMePhe(2-F)]TSDYSKLLDKIAQK([AEEA-γGlu-C20 diacid])AFIEYLLEGGPSSGEPPPSEG-NH2 [Example 295] | 61.1 nM | 232 nM | 605 nM | 0.126 nM | 0.831 nM | 2.15 nM | 51.58 ± 3.24 % | 16.4 nM | 44.1% | – | 31.4 nM | 88.4% | – | – | – | – |
| H-[NMeY][Aib]QGT[αMeF]TSDYSSLLDKIAAK([AEEA-AEEA-γGlu-C20 diacid])AFIEYLLEGGPSSGEPPPSEG-NH2 [Example 297] | 325 nM | 1130 nM | 2320 nM | 0.626 nM | 2.96 nM | 3.26 nM | 48.42 ± 2.86 % | 60.2 nM | 33.5% | – | – | – | – | – | – | – |
| Y[Aib]QGTFTSDFS[Orn][αMeL]LDKK([AEEA-γGlu-C18 diacid])AQ[Aib]AFIEYLLAGGPSSGEPPPEGE-NH2 [Example 98] | 33.8 nM | 660 nM | 867 nM | 0.179 nM | 4.35 nM | 6.91 nM | – | – | – | 90.78 +/− 1.26* % | 56 nM | 49.3% | – | – | – | – |
| Y[Aib]QGTFTSDFS[Orn][αMeL]LDKK([AEEA-γGlu-C18 diacid])AQ[Aib]AFIEYLLEGGPSSGAPPPGGS-NH2 [Example 62] | 31.2 nM | 299 nM | 396 nM | 0.146 nM | 2.72 nM | 3.96 nM | – | – | – | 88.05 +/− 1.08*** % | 40.3 nM | 44.9% | 0.03 | – | – | – |

Source: US20240270821A1, “GIP/GLP1/GCG TRI-RECEPTOR AGONISTS AND USES THEREOF” (priority 2023, published 2024)
